# Test results from ChEMBL document CHEMBL6103616, “Isolation and Biosynthesis of Hyellamide, a Glycosylated N-Acyltyrosine Derivative, from the Cyanobacterium Hyella patelloides LEGE 07179” (J Nat Prod, 2025).
# The source made the active and inactive calls. The rule behind the calls is not given here.
# Test system: Bacillus subtilis
# Test: Antibacterial activity against Bacillus subtilis […] assessed as growth inhibition by agar disk diffusion method
# Assay type: functional, organism-based
smiles,measurement,value
CCCCCCCCCCCCCC(=O)N/C=C/c1ccc(O[C@@H]2OC[C@@H](O)[C@H](OC(C)=O)[C@H]2O)cc1,Activity,inactive
